{
  "source": "patent US20250034135A1",
  "about": "“ANTI-APOPTOTIC PROTEIN BCL-2 INHIBITOR, PHARMACEUTICAL COMPOSITION AND USES THEREOF” (HANGZHOU HEALZEN THERAPEUTICS CO., LTD., priority 2021, published 2025)",
  "data": [
    {"target": "BCL2 (Homo sapiens (Human), UniProt P10415)", "sequence (P10415 whole entry)": "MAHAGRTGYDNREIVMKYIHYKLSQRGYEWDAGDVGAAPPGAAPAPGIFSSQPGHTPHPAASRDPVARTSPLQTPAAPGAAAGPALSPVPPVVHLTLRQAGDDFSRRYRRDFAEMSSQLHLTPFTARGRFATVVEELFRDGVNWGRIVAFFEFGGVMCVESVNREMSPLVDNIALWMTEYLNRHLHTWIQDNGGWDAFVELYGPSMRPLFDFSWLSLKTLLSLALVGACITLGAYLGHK", "experiment": "Molecular level activity test of anti-apoptotic protein BCL2 (HTRF, binding to Bim peptide)", "conditions": "HTRF, binding of BCL2 to Bim peptide; read-out: BCL2 nM (inhibitory activity, IC50)", "procedure,_shortened": "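Competition binding format: recombinant His-BCL2 and a biotin-Bim peptide are incubated with compound for 1 h, followed by 4 h at room temperature with HTRF detection antibodies.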", "units": {"IC50": "nM"}, "values": [
      {"molecule": "COc1ccc(CN2CCN(C3CC4(CCN(c5ccc(C(=O)NS(=O)(=O)c6cc([N+](=O)[O-])c(NCC7(F)CCOCC7)c7[nH]cnc67)c(N6CCOc7nc8[nH]ccc8cc76)c5)CC4)C3)C(c3ccccc3C(C)C)C2)cc1", "note": "(stereo not shown) [compound 093, 2-(2,3-dihydropyrrolo[3′,2′:5,6]pyridino[2,3-b][1,4]oxazin-1 (6H)-yl)-N-((7-(((4-fluorotetrahydro-2H-pyran-4-yl)methyl)amino)-6-nitro-1H-benzo[d]imidazol-4-yl)sulfonyl)-4-(2-(2-(2-isopropylphenyl)-4-(4-methoxybenzyl)piperazin-1-yl)-7-azaspiro[3.5]non-7-yl)benzamide]", "IC50": "< 10"},
      {"molecule": "COc1ccc(CN2CCN(C3CC4(CCN(c5ccc(C(=O)NS(=O)(=O)c6cc([N+](=O)[O-])c(NCC7(F)CCOCC7)c7c6OCO7)c(Oc6cnc7[nH]ccc7c6)c5)CC4)C3)[C@H](c3ccccc3C(C)C)C2)cc1", "note": "[compound 147, (R)-2-((1H-pyrrolo[2,3-b]pyrid-5-yl)oxy)-N-((7-(((4-fluorotetrahydro-2H-pyran-4-yl)methyl)amino)-6-nitrobenzo[d][1,3]dioxocyclopent-4-yl)sulfonyl)-4-(2-(2-(2-isopropylphenyl)-4-(4-methoxybenzyl)piperazin-1-yl)-7-azaspiro[3.5]non-7-yl)benzamide]", "IC50": "< 10"},
      {"molecule": "COc1ccc(CN2CCN(C3CC4(C3)CN(c3cc(Oc5cnc6[nH]ccc6c5)c(C(=O)NS(=O)(=O)c5ccc(NC[C@H]6CC[C@](C)(O)CC6)c([N+](=O)[O-])c5)cc3F)C4)C(c3ccccc3C(C)C)C2)cc1", "note": "(stereo partly shown) [compound 056, 2-((1H-pyrrolo[2,3-b]pyrid-5-yl)oxy)-5-fluoro-N-((4-((((1r,4r)-4-hydroxy-4-methylcyclohexyl)methyl)amino)-3-nitrophenyl)sulfonyl)-4-(6-(2-(2-isopropylphenyl)-4-(4-methoxybenzyl)piperazin-1-yl)-2-azaspiro[3.3]hept-2-yl)benzamide]", "IC50": "< 10"},
      {"molecule": "COc1ccc(CN2CCN(C3CC4(CCN(c5cc(Oc6cnc7[nH]ccc7c6)c(C(=O)NS(=O)(=O)c6cc([N+](=O)[O-])c(NCC7(F)CCOCC7)c7occc67)cc5F)CC4)C3)[C@H](c3ccccc3C(C)C)C2)cc1", "note": "[compound 109, (R)-2-((1H-pyrrolo[2,3-b]pyrid-5-yl)oxy)-5-fluoro-N-((7-(((4-fluorotetrahydro-2H-pyran-4-yl)methyl)amino)-6-nitrobenzofuran-4-yl)sulfonyl)-4-(2-(2-(2-isopropylphenyl)-4-(4-methoxybenzyl)piperazin-1-yl)-7-azaspiro[3.5]non-7-yl)benzamide]", "IC50": "< 10"},
      {"molecule": "COc1ccc(CN2CCN(C3CC4(CCN(c5ccc(C(=O)NS(=O)(=O)c6cc([N+](=O)[O-])c(NC[C@H]7COCCO7)c7c6OCCO7)c(Oc6cnc7[nH]ccc7c6)c5)CC4)C3)[C@H](c3ccccc3C(C)C)C2)cc1", "note": "[compound 183, N-((8-((((S)-1,4-dioxan-2-yl)methyl)amino)-7-nitro-2,3-dihydrobenzo[b][1,4]dioxan-5-yl)sulfonyl)-2-((1H-pyrrolo[2,3-b]pyrid-5-yl)oxy)-4-(2-((R)-2-(2-isopropylphenyl)-4-(4-methoxybenzyl)piperazin-1-yl)-7-azaspiro[3.5]non-7-yl)benzamide]", "IC50": "< 10"},
      {"molecule": "CC(C)c1ccccc1[C@@H]1CN(Cc2ccc(N(C)C)cc2)CCN1C1CC2(CCN(c3cc(Oc4cnc5[nH]ccc5c4)c(C(=O)NS(=O)(=O)c4ccc(NCC5(F)CCOCC5)c([N+](=O)[O-])c4)cc3F)CC2)C1", "note": "[compound 198, (R)-2-((1H-pyrrolo[2,3-b]pyrid-5-yl)oxy)-4-(2-(4-(4-(dimethylamino)benzyl)-2-(2-isopropylphenyl)piperazin-1-yl)-7-azaspiro[3.5]non-7-yl)-5-fluoro-N-((4-(((4-fluorotetrahydro-2H-pyran-4-yl)methyl)amino)-3-nitrophenyl)sulfonyl)benzamide]", "IC50": "< 10"},
      {"molecule": "CC(C)c1ccccc1[C@@H]1CCCN1C1CC2(CCN(c3cc(Oc4cnc5[nH]ccc5c4)c(C(=O)NS(=O)(=O)c4cc([N+](=O)[O-])c(NCC5(F)CCN(CC(C)(C)C)CC5)c5[nH]cnc45)cc3F)CC2)C1", "note": "[compound 026]", "IC50": "< 10"},
      {"molecule": "(S)-2-((1H-pyrrolo[2,3-b]pyrid-5-yl)oxy)-N-((7-(((4-fluoro-1-(oxocyclobut-3-yl)piperid-4-yl)methyl)amino)-6-nitro-1H-benzo[d]imidazol-4-yl)sulfonyl)-4-(2-(2-(2-isopropylphenyl)pyrrolidin-1-yl)-7-azaspiro[3.5]non-7-yl)benzamide [compound 003]", "IC50": "< 10"},
      {"molecule": "CC(C)c1ccccc1[C@@H]1CN(Cc2ccc(F)cc2)CCN1C1CC2(CCN(c3cc(Oc4cnc5[nH]ccc5c4)c(C(=O)NS(=O)(=O)c4ccc(NC[C@H]5CC[C@](C)(O)CC5)c([N+](=O)[O-])c4)cc3F)CC2)C1", "note": "[compound 215, 2-((1H-pyrrolo[2,3-b]pyrid-5-yl)oxy)-5-fluoro-4-(2-((R)-4-(4-fluorobenzyl)-2-(2-isopropylphenyl)piperazin-1-yl)-7-azaspiro[3.5]non-7-yl)-N-((4-((((1r, 4r)-4-hydroxy-4-methylcyclohexyl)methyl)amino)-3-nitrophenyl)sulfonyl)benzamide]", "IC50": "< 10"},
      {"molecule": "COc1ccc(CN2CCN(C3CC4(CCN(c5cc(Oc6cnc7[nH]ccc7c6)c(C(=O)NS(=O)(=O)c6cc([N+](=O)[O-])c(NC[C@H]7CC[C@](C)(O)CC7)c7c6OCO7)cc5F)CC4)C3)[C@H](c3ccccc3C(C)C)C2)cc1", "note": "[compound 113, 2-((1H-pyrrolo[2,3-b]pyrid-5-yl)oxy)-5-fluoro-N-((7-((((1r, 4r)-4-hydroxy-4-methylcyclohexyl)methyl)amino)-6-nitrobenzo[d][1,3]dioxocyclopent-4-yl)sulfonyl)-4-(2-((R)-2-(2-isopropylphenyl)-4-(4-methoxybenzyl)piperazin-1-yl)-7-azaspiro[3.5]non-7-yl)benzamide]", "IC50": "< 10"},
      {"molecule": "COc1ccc(CN2CCN(C3CC4(CCN(c5cc(Oc6cnc7[nH]ccc7c6)c(C(=O)NS(=O)(=O)c6ccc(NCC7(F)CCOCC7)c([N+](=O)[O-])c6)cn5)CC4)C3)C(c3ccccc3C(C)C)C2)cc1", "note": "(stereo not shown) [compound 065, 4-((1H-pyrrolo[2,3-b]pyrid-5-yl)oxy)-N-((4-(((4-fluorotetrahydro-2H-pyran-4-yl)methyl)amino)-3-nitrophenyl)sulfonyl)-6-(2-(2-(2-isopropylphenyl)-4-(4-methoxybenzyl)piperazin-1-yl)-7-azaspiro[3.5]non-7-yl) nicotinamide]", "IC50": "< 10"},
      {"molecule": "COc1cc(CN2CCN(C3CC4(CCN(c5cc(Oc6cnc7[nH]ccc7c6)c(C(=O)NS(=O)(=O)c6ccc(NCC7(F)CCOCC7)c([N+](=O)[O-])c6)cc5F)CC4)C3)[C@H](c3ccccc3C(C)C)C2)ccc1C(C)C", "note": "[compound 194, (R)-2-((1H-pyrrolo[2,3-b]pyrid-5-yl)oxy)-5-fluoro-N-((4-(((4-fluorotetrahydro-2H-pyran-4-yl)methyl)amino)-3-nitrophenyl)sulfonyl)-4-(2-(4-(4-isopropyl-3-methoxybenzyl)-2-(2-isopropylphenyl)piperazin-1-yl)-7-azaspiro[3.5]non-7-yl)benzamide]", "IC50": "< 10"},
      {"molecule": "COc1ccc(CN2CCN(C3CC4(CCN(c5ccc(C(=O)NS(=O)(=O)c6cc([N+](=O)[O-])c(NC[C@H]7CC[C@](C)(O)CC7)c7[nH]cnc67)c(Oc6cnc7[nH]cc(F)c7c6)c5)CC4)C3)C(c3ccccc3C(C)C)C2)cn1", "note": "(stereo partly shown) [compound 049, 2-((3-fluoro-1H-pyrrolo[2,3-b]pyrid-5-yl)oxy)-N-((7-((((1r,4r)-4-hydroxy-4-methylcyclohexyl)methyl)amino)-6-nitro-1H-benzo[d]imidazol-4-yl)sulfonyl)-4-(2-(2-(2-isopropylphenyl)-4-((6-methoxypyrid-3-yl)methyl)piperazin-1-yl)-7-azaspiro[3.5]non-7-yl)benzamide]", "IC50": "< 10"},
      {"molecule": "COc1ccc(CN2CCN(C3CC4(CCN(c5cc(Oc6cnc7[nH]ccc7c6)c(C(=O)NS(=O)(=O)c6cc([N+](=O)[O-])c(NC[C@H]7CC[C@](C)(O)CC7)c7scnc67)cn5)CC4)C3)[C@H](c3ccccc3C(C)C)C2)cc1", "note": "[compound 140, 4-((1H-pyrrolo[2,3-b]pyrid-5-yl)oxy)-N-((7-((((1r, 4r)-4-hydroxy-4-methylcyclohexyl)methyl)amino)-6-nitrobenzo[d]thiazol-4-yl)sulfonyl)-6-(2-((R)-2-(2-isopropylphenyl)-4-(4-methoxybenzyl)piperazin-1-yl)-7-azaspiro[3.5]non-7-yl) nicotinamide]", "IC50": "< 10"},
      {"molecule": "CC(C)c1ccccc1[C@@H]1CN(Cc2ccc(C3CC3)cc2)CCN1C1CC2(CCN(c3ccc(C(=O)NS(=O)(=O)c4cc([N+](=O)[O-])c(NC[C@H]5CC[C@](C)(O)CC5)c5c4OCO5)c(Oc4cnc5[nH]ccc5c4)c3)CC2)C1", "note": "[compound 178, 2-((1H-pyrrolo[2,3-b]pyrid-5-yl)oxy)-4-(2-((R)-4-(4-cyclopropylbenzyl)-2-(2-isopropylphenyl)piperazin-1-yl)-7-azaspiro[3.5]non-7-yl)-N-((7-((((1r, 4r)-4-hydroxy-4-methylcyclohexyl)methyl)amino)-6-nitrobenzo[d][1,3]dioxocyclopent-4-yl)sulfonyl)benzamide]", "IC50": "< 10"},
      {"molecule": "CC(C)c1ccccc1[C@@H]1CN(Cc2cccc(F)c2F)CCN1C1CC2(CCN(c3cc(Oc4cnc5[nH]ccc5c4)c(C(=O)NS(=O)(=O)c4ccc(NC[C@H]5CC[C@](C)(O)CC5)c([N+](=O)[O-])c4)cc3F)CC2)C1", "note": "[compound 218, 2-((1H-pyrrolo[2,3-b]pyrid-5-yl)oxy)-4-(2-((R)-4-(2,3-difluorobenzyl)-2-(2-isopropylphenyl)piperazin-1-yl)-7-azaspiro[3.5]non-7-yl)-5-fluoro-N-((4-((((1r, 4r)-4-hydroxy-4-methylcyclohexyl)methyl)amino)-3-nitrophenyl)sulfonyl)benzamide]", "IC50": "< 10"}
    ]}
  ]
}
